ChEMBL document CHEMBL1201862, “PubChem BioAssay data set” (2004)
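96-well plates; 48 h exposure; 5 concentrations. Endpoints by linear interpolation between flanking doses. Not reached: highest tested concentration assigned. The concentration for 50% growth inhibition is given as GI50.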 Calls of active or inactive are those of the source. Rule as the data show it: active = GI50 up to about 1.1 µM and inactive = higher.

What was measured:
Test in all cases: inhibition of tumour cell growth, NCI panel, 48 h
[1] = tested on: A498
[2] = tested on: ACHN
[3] = tested on: BT-549
[4] = tested on: CAKI-1
[5] = tested on: CCRF-CEM
[6] = tested on: COLO 205
[7] = tested on: DU-145
[8] = tested on: HCC 2998
[9] = tested on: HCT-15
[10] = tested on: HL-60
[11] = tested on: HOP-62
[12] = tested on: HOP-92
[13] = tested on: Hs-578T
[14] = tested on: IGROV-1
[15] = tested on: K562
[16] = tested on: KM12
[17] = tested on: LOX IMVI
[18] = tested on: MCF7
[19] = tested on: MDA-MB-231
[20] = tested on: MDA-MB-435
[21] = tested on: MOLT-4
[22] = tested on: Malme-3M
[23] = tested on: NCI-H23
[24] = tested on: NCI-H460
[25] = tested on: NCI-H522
[26] = tested on: NCI/ADR-RES
[27] = tested on: OVCAR-3
[28] = tested on: OVCAR-4
[29] = tested on: OVCAR-8
[30] = tested on: PC-3
[31] = tested on: RPMI-8226
[32] = tested on: RXF 393
[33] = tested on: SF-268
[34] = tested on: SF-295
[35] = tested on: SF-539
[36] = tested on: SK-MEL-28
[37] = tested on: SK-MEL-2
[38] = tested on: SK-MEL-5
[39] = tested on: SK-OV-3
[40] = tested on: SNB-75
[41] = tested on: SW-620
[42] = tested on: T47D
[43] = tested on: TK-10
[44] = tested on: U-251
[45] = tested on: UACC-257
[46] = tested on: UACC-62
[47] = tested on: 786-0
[48] = tested on: A549
[49] = tested on: EKVX
[50] = tested on: HCT-116
[51] = tested on: HT-29
[52] = tested on: M14
[53] = tested on: NCI-H226
[54] = tested on: OVCAR-5
[55] = tested on: SN12C
[56] = tested on: SNB-19
[57] = tested on: SR
[58] = tested on: UO-31

COc1cc2c3c(c4cc(OC)c(OC)cc4c2cc1OC)C(=O)C1CCC(=O)N1C3 (stereo not given)
GI50 [1]: 14.9 µM (inactive) | GI50 [2]: 5.86 µM (inactive) | GI50 [3]: 14.8 µM (inactive) | GI50 [4]: 8.75 µM (inactive) | GI50 [5]: 6.64 µM (inactive) | GI50 [6]: 24.5 µM (inactive) | GI50 [7]: 11.5 µM (inactive) | GI50 [8]: 21.7 µM (inactive) | GI50 [9]: 31.6 µM | GI50 [10]: 41.3 µM (inactive) | GI50 [11]: 13.6 µM (inactive) | GI50 [12]: 12 µM (inactive) | GI50 [13]: 3.3 µM (inactive) | GI50 [14]: 2.43 µM (inactive) | GI50 [15]: 14 µM (inactive) | GI50 [16]: 70.1 µM (inactive) | GI50 [17]: 24.9 µM (inactive) | GI50 [18]: 11.9 µM (inactive) | GI50 [19]: 55.5 µM (inactive) | GI50 [20]: 21.9 µM (inactive) | GI50 [21]: 3.27 µM (inactive) | GI50 [22]: 8.75 µM (inactive) | GI50 [23]: 55 µM (inactive) | GI50 [24]: 13.8 µM (inactive) | GI50 [25]: 3.1 µM (inactive) | GI50 [26]: 94.4 µM (inactive) | GI50 [27]: 20.6 µM (inactive) | GI50 [28]: 12.8 µM (inactive) | GI50 [29]: 27.2 µM (inactive) | GI50 [30]: 25.6 µM (inactive) | GI50 [31]: 2.02 µM (inactive) | GI50 [32]: 14.8 µM (inactive) | GI50 [33]: 22.2 µM (inactive) | GI50 [34]: 21.6 µM (inactive) | GI50 [35]: 10.9 µM (inactive) | GI50 [36]: 19.8 µM (inactive) | GI50 [37]: 41.9 µM (inactive) | GI50 [38]: 34 µM (inactive) | GI50 [39]: 14.2 µM (inactive) | GI50 [40]: 11.6 µM (inactive) | GI50 [41]: 15.5 µM (inactive) | GI50 [42]: 8.71 µM (inactive) | GI50 [43]: 12.8 µM (inactive) | GI50 [44]: 26.3 µM (inactive) | GI50 [45]: 41.9 µM (inactive) | GI50 [46]: 16.6 µM (inactive)

CC1=NN(c2nc(N)nc(CCl)n2)CC1
GI50 [47]: 10.1 µM (inactive) | GI50 [1]: 42.3 µM (inactive) | GI50 [48]: 57.7 µM (inactive) | GI50 [2]: 17.3 µM (inactive) | GI50 [3]: 31 µM (inactive) | GI50 [4]: 9.12 µM (inactive) | GI50 [5]: 14.9 µM (inactive) | GI50 [6]: 18.5 µM (inactive) | GI50 [7]: 56.4 µM (inactive) | GI50 [49]: 16.1 µM (inactive) | GI50 [8]: 31.2 µM (inactive) | GI50 [50]: 24.5 µM (inactive) | GI50 [9]: 17.3 µM | GI50 [10]: 12 µM (inactive) | GI50 [11]: 11.4 µM (inactive) | GI50 [12]: 19.3 µM (inactive) | GI50 [51]: 30.4 µM (inactive) | GI50 [13]: 26.3 µM (inactive) | GI50 [14]: 7.14 µM (inactive) | GI50 [15]: 18.2 µM (inactive) | GI50 [16]: 16.4 µM (inactive) | GI50 [52]: 25 µM (inactive) | GI50 [18]: 38.1 µM (inactive) | GI50 [19]: 40 µM (inactive) | GI50 [20]: 32 µM (inactive) | GI50 [21]: 19.7 µM (inactive) | GI50 [53]: 30.5 µM (inactive) | GI50 [23]: 19.3 µM (inactive) | GI50 [24]: 20.9 µM (inactive) | GI50 [25]: 1.96 µM (inactive) | GI50 [26]: 24.2 µM (inactive) | GI50 [27]: 13.4 µM (inactive) | GI50 [28]: 16.8 µM (inactive) | GI50 [54]: 20 µM (inactive) | GI50 [29]: 20.8 µM (inactive) | GI50 [30]: 36.2 µM (inactive) | GI50 [31]: 38.9 µM (inactive) | GI50 [32]: 49.8 µM (inactive) | GI50 [33]: 32.7 µM (inactive) | GI50 [34]: 30.2 µM (inactive) | GI50 [35]: 24.5 µM (inactive) | GI50 [36]: 22.8 µM (inactive) | GI50 [37]: 26.6 µM (inactive) | GI50 [38]: 14.8 µM (inactive) | GI50 [39]: 36.6 µM (inactive) | GI50 [55]: 32.4 µM (inactive) | GI50 [56]: > 100 µM (inactive) | GI50 [40]: 18.6 µM (inactive) | GI50 [57]: 20.8 µM (inactive) | GI50 [41]: 23.3 µM (inactive) | GI50 [42]: 74.8 µM (inactive) | GI50 [43]: 55.5 µM (inactive) | GI50 [44]: 29.4 µM (inactive) | GI50 [45]: 69.5 µM (inactive) | GI50 [46]: 15.2 µM (inactive) | GI50 [58]: 7.76 µM (inactive)

Cc1nc(=O)c2cc(CN(C)c3ccc(C(=O)N[C@@H](CCC(=O)O)C(=O)O)s3)ccc2[nH]1 [RALTITREXED]
GI50 [47]: 0.0438 µM (active) | GI50 [48]: 11.9 µM (inactive) | GI50 [2]: 0.0467 µM (active) | GI50 [3]: 71.4 µM (inactive) | GI50 [4]: > 100 µM (inactive) | GI50 [6]: > 100 µM (inactive) | GI50 [7]: 0.273 µM (active) | GI50 [49]: > 100 µM (inactive) | GI50 [50]: 0.264 µM (active) | GI50 [9]: > 100 µM | GI50 [10]: 5.92 µM (inactive) | GI50 [11]: 0.13 µM (active) | GI50 [12]: > 100 µM (inactive) | GI50 [51]: > 100 µM (inactive) | GI50 [13]: > 100 µM (inactive) | GI50 [14]: > 100 µM (inactive) | GI50 [15]: 0.0104 µM (active) | GI50 [16]: > 100 µM (inactive) | GI50 [17]: 0.0303 µM (active) | GI50 [52]: 0.0931 µM (active) | GI50 [18]: 8.04 µM (inactive) | GI50 [19]: > 100 µM (inactive) | GI50 [20]: > 100 µM (inactive) | GI50 [21]: 0.0977 µM (active) | GI50 [22]: 0.303 µM (active) | GI50 [53]: > 100 µM (inactive) | GI50 [24]: 0.041 µM (active) | GI50 [25]: > 100 µM (inactive) | GI50 [27]: > 100 µM (inactive) | GI50 [28]: > 100 µM (inactive) | GI50 [54]: > 100 µM (inactive) | GI50 [29]: 0.0883 µM (active) | GI50 [30]: > 100 µM (inactive) | GI50 [31]: 0.0834 µM (active) | GI50 [33]: 12.8 µM (inactive) | GI50 [34]: 0.0535 µM (active) | GI50 [35]: 84.7 µM (inactive) | GI50 [36]: > 100 µM (inactive) | GI50 [37]: > 100 µM (inactive) | GI50 [39]: > 100 µM (inactive) | GI50 [55]: 0.65 µM (active) | GI50 [56]: > 100 µM (inactive) | GI50 [40]: 6.79 µM (inactive) | GI50 [57]: 0.0399 µM (active) | GI50 [41]: > 100 µM (inactive) | GI50 [42]: > 100 µM (inactive) | GI50 [43]: > 100 µM (inactive) | GI50 [44]: 0.546 µM (active) | GI50 [45]: > 100 µM (inactive) | GI50 [46]: 0.193 µM (active)

COc1ccc(-c2cc(-c3ccc(Nc4ccnc5cc(C(F)(F)F)ccc45)cc3)nc(N)c2C#N)c2ccccc12
GI50 [47]: > 100 µM (inactive) | GI50 [1]: > 100 µM (inactive) | GI50 [48]: > 100 µM (inactive) | GI50 [2]: > 100 µM (inactive) | GI50 [3]: 36.6 µM (inactive) | GI50 [4]: > 100 µM (inactive) | GI50 [6]: > 100 µM (inactive) | GI50 [7]: > 100 µM (inactive) | GI50 [49]: > 100 µM (inactive) | GI50 [8]: > 100 µM (inactive) | GI50 [50]: 97.9 µM (inactive) | GI50 [9]: > 100 µM | GI50 [10]: 70.3 µM (inactive) | GI50 [11]: > 100 µM (inactive) | GI50 [12]: > 100 µM (inactive) | GI50 [13]: 65.2 µM (inactive) | GI50 [16]: 68.5 µM (inactive) | GI50 [17]: 29.4 µM (inactive) | GI50 [52]: > 100 µM (inactive) | GI50 [18]: 97.9 µM (inactive) | GI50 [19]: > 100 µM (inactive) | GI50 [20]: > 100 µM (inactive) | GI50 [21]: 53.3 µM (inactive) | GI50 [22]: > 100 µM (inactive) | GI50 [23]: > 100 µM (inactive) | GI50 [24]: > 100 µM (inactive) | GI50 [26]: > 100 µM (inactive) | GI50 [27]: > 100 µM (inactive) | GI50 [28]: > 100 µM (inactive) | GI50 [54]: > 100 µM (inactive) | GI50 [30]: > 100 µM (inactive) | GI50 [31]: > 100 µM (inactive) | GI50 [32]: > 100 µM (inactive) | GI50 [33]: > 100 µM (inactive) | GI50 [34]: > 100 µM (inactive) | GI50 [35]: > 100 µM (inactive) | GI50 [37]: > 100 µM (inactive) | GI50 [38]: > 100 µM (inactive) | GI50 [39]: > 100 µM (inactive) | GI50 [56]: > 100 µM (inactive) | GI50 [40]: > 100 µM (inactive) | GI50 [57]: 32.5 µM (inactive) | GI50 [41]: > 100 µM (inactive) | GI50 [42]: > 100 µM (inactive) | GI50 [43]: > 100 µM (inactive) | GI50 [44]: > 100 µM (inactive) | GI50 [46]: > 100 µM (inactive) | GI50 [58]: > 100 µM (inactive)
